The numbers were not newly measured in article PMC4894568 (PLoS ONE, 2016), which cites them from elsewhere.

Series [1] concerns Influenza A virus. The note with it: mouse, in vivo.
Series [2] deals with Influenza A virus.

As to LL-37, the “infection with Influenza A virus in an infection model” value in series [1] is “prevented or inhibited the infection”. The “infectivity of Influenza A virus” value in series [2] is given as “influenced the infectivity”.
